We go through 18 molecules from patent US6506901B2, “Substituted 2-(S)-hydroxy-3-(piperidin-4-yl-methylamino)-propyl ethers and substituted 2-aryl-2-(R)-hydroxy-1-(piperidin-4-yl-methyl)-ethylamine β-3 adrenergic receptor agonists” (Wyeth, priority 2000, dated 2003).

The assay concerns the target T1, human β3 receptors (Homo sapiens, UniProt P13945).
T1 construct: Full length β3 AR clones (402 amino acids) containing the last 6 amino acids of hβ3—AR; expressed in transfected cells; host or cells: CHO cells
Put plainly: cAMP response (SPA) in CHO cells expressing cloned human β3 adrenergic receptor. Conditions: for EC50: CHO cells expressing human β3 receptor, cAMP, 30 min incubation, 10^−9 M to 10^−5 M; for IA(β3): maximal response compared to the maximal response of isoproterenol at 10^−5 M. The format is cell-based. As to the method:
Binding to the receptors was measured in Chinese Hamster ovary (CHO) cells that were transfected with adrenergic receptors.
Cloning of Human β3-AR Genomic DNA: cDNA was constructed by ligating four polymerase chain reaction (PCR) products using the following primers: an ATG-NarI fragment, sense primer 5′-[…]3′ and anti-sense primer 5′ […]3′; a NarI-AccI fragment, 5′ […]3′ as sense and 5′ […]3′ as anti-sense primer; an AccIi-StyI fragment, sense primer 5′ […]3′ and anti-sense primer 5′ […]3′ and a StyI-TAG fragment, with sense primer 5′ […]3′ and anti-sense primer 5′ […]3′. The corresponding primer sequences are described in Mantzoros, C. […] The four fragments are ligated into a pUC 18 plasmid (Gibco-BRL) and sequenced.
CHO cells were grown in 24-well tissue culture plates in Dulbecco's Modified Eagle Media with 10% fetal bovine serum, MEM non-essential amino acids, Penicillin-Streptompycin and Geneticin. […] Isoproterenol (10^−5 M) was used as an internal standard for comparison of activity. Cells were incubated at 37° C. on a rocker for 30 min with the β3 cells and 15 min for β1 and β2 cells. Incubation was stopped with the addition of 0.2N HCl and neutralized with 2.5N NaOH. The plates, containing the cells and neutralized media, were stored at −20 degrees celsius until ready to test for cAMP using the SPA test kit (Amersham).
Data Analysis and Results: Data collected from the SPA test procedure were analyzed as per cent of the maximal isoproterenol response at 10^−5 M. Activity curves were plotted using the SAS statistical and graphics software.

Values joined by “and” are separate entries in the source; they are usually repeats but may differ in a detail not shown here. Identical values can stand only once.

T1 sequence (P13945 whole entry): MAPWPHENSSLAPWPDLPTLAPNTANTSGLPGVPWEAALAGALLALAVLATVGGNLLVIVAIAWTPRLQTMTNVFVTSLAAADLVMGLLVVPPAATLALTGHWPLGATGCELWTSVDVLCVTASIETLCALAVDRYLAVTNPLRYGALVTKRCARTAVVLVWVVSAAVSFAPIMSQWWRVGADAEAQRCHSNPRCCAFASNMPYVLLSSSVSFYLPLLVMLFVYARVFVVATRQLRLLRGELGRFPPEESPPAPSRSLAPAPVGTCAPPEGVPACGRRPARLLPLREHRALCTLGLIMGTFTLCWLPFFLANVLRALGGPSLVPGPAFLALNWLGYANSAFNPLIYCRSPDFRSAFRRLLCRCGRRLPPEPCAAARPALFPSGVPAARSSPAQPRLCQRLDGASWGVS

As for `O=C(Nc1ccc(S(=O)(=O)N2CCC(CNC[C@H](O)COc3ccc(O)cc3)CC2)cc1)c1n[nH]c2ccccc12` [Example 92, 1H-Indazole-3-carboxylic Acid [4-(4-{[(2S)-2-Hydroxy-3-(4-hydroxy-phenoxy)-propylamino]-methyl}-piperidine-1-sulfonyl)-phenyl]-amide], the EC50 stood at 160 nM and the “IA(β3)” value turned out to be 0.82.
In the case of `CC(C)N(Cc1c(F)cccc1F)C(=O)Nc1ccc(S(=O)(=O)N2CCC(CNC[C@H](O)c3ccc(O)c(NS(C)(=O)=O)c3)CC2)cc1` [Example 84, N-(5-{(1R)-2-[(1-{4-[3-(2,6-Difluoro-benzyl)-3-isopropyl-ureido]-benzenesulfonyl}-piperidin-4-ylmethyl)-amino]-1-hydroxy-ethyl}-2-hydroxy-phenyl)-methane-sulfonamide], the EC50 worked out at 27 nM and the “IA(β3)” value turned out to be 0.93.
For `CS(=O)(=O)Nc1cc([C@@H](O)CNCC2CCN(S(=O)(=O)c3c(Cl)sc(Cl)c3Br)CC2)ccc1O` [Example 173, N-(5-{(1R)-2-[({1-[(4-bromo-2,5-dichlorothien-3-yl)sulfonyl]-piperidin-4-yl}methyl)amino]-1-hydroxyethyl}-2-hydroxyphenyl)-methanesulfonamide], the EC50 is 388 nM and 380 nM; the “IA(β3)” value was 1.34 and 1.15.
Regarding `O=S(=O)(c1ccc(OC(F)(F)F)cc1)N1CCC(CNC[C@H](O)COc2ccc(O)cc2)CC1` [Example 47, 4-((2S)-2-Hydroxy-3-{[1-(4-trifluoromethoxy-benzenesulfonyl)-piperidin-4-ylmethyl]-amino}-propoxy)-phenol], the response was half-maximal at 250 nM (EC50) and the “IA(β3)” value was determined as 0.7.
As for `CS(=O)(=O)Nc1cc(C(O)CNCC2CCN(S(=O)(=O)c3ccc(-c4noc(CCC(=O)O)n4)cc3)CC2)ccc1O` (stereo in doubt) [Example 105, 3-(3-{4-[(4-{[((2S)-2-Hydroxy-2-{4-hydroxy-3-[(methylsulfonyl)amino]-phenyl}ethyl)amino]methyl}-1-piperidinyl)sulfonyl]phenyl}-1,2,4-oxadiazol-5-yl)propanoic Acid], the EC50 worked out at 34 nM and the “IA(β3)” value is recorded as 0.94.
As for `CS(=O)(=O)Nc1cc([C@@H](O)CNCC2CCN(c3ccc(S(=O)(=O)N4CCCCC4)cc3)CC2)ccc1O` [Example 106, (R)-N-{2-Hydroxy-5-[1-hydroxy-2-({1-[4-(piperidine-1-sulfonyl)-phenyl]-piperidin-4-ylmethyl}-amino)-ethyl]-phenyl}-methanesulfonamide], the EC50 was 1 nM and the “IA(β3)” value is reported as 0.97.
Consider `CC(C)(C)c1ccc(S(=O)(=O)N2CCC(CNC[C@H](O)c3ccc(O)c(NS(C)(=O)=O)c3)CC2)cc1` [Example 163, N-[5-((1R)-2-{[(1-{[4-(tert-butyl)phenyl]sulfonyl}piperidin-4-yl)-methyl]amino}-1-hydroxyethyl)-2-hydroxyphenyl]-methanesulfonamide], for which the EC50 worked out at 40 nM and the “IA(β3)” value came out at 0.85.
As to `O=c1[nH]c2cccc(OC[C@@H](O)CNCC3CCN(S(=O)(=O)c4ccc5ccccc5c4)CC3)c2[nH]1` [Example 157, 4-{[(2S)-2-hydroxy-3-({[1-(2-naphthylsulfonyl)piperidin-4-yl]methyl}amino)propyl]oxy}-1,3-dihydro-2H-benzimidazol-2-one], the response was half-maximal at 670 nM (EC50) and the “IA(β3)” value stood at 1.
For the molecule `CCCCCCCCNC(=O)Nc1ccc(S(=O)(=O)N2CCC(CNCC(O)COc3cccc4[nH]c(C(N)=O)cc34)CC2)cc1` (stereo not drawn) [Example 71, 4-[2-Hydroxy-3-({1-[4-(3-octyl-ureide)-benzenesulfonyl]-piperidin-4-ylmethyl}-amino)-propoxy]-1H-indole-2-carboxylic Acid Amide], the EC50 stood at 96 nM and the “IA(β3)” value was determined as 0.6.
In the case of `COC(=O)c1cccc2c1ccn2-c1ccc(S(=O)(=O)N2CCC(CNC[C@H](O)c3ccc(O)c(NS(C)(=O)=O)c3)CC2)cc1` [Example 98, 1-[4-(4-{[(2R)-2-Hydroxy-2-(4-hydroxy-3-methanesulfonylamino-phenyl)-ethyl-amino]-methyl}-piperidine-1-sulfonyl)-phenyl]-1H-indole-4-carboxylic Acid Methyl Ester], the EC50 was determined as 25 nM and the “IA(β3)” value is 1.
Regarding `CC(C)C[C@H](NC(=O)c1ccc(N2CCC(CNC[C@H](O)c3ccc(O)c(NS(C)(=O)=O)c3)CC2)cc1)C(=O)O` [Example 114, (2S)-2-{[4-(4-{[((2R)-2-Hydroxy-2-{4-hydroxy-3-[(methylsulfonyl)amino]phenyl}-ethyl)amino]methyl}piperidin-1-yl)benzoyl]amino}-4-methylpentanoic Acid], the EC50 was found to be 10 nM and the “IA(β3)” value amounted to 1.
For `COc1ccc(S(=O)(=O)N2CCC(CNC[C@H](O)COc3cccc4[nH]c(C)cc34)CC2)cc1` [Example 40, 4-((2S)-2-Hydroxy-3-{[1-(4-methoxy-benzenesulfonyl)-piperidin-4-ylmethyl]-amino}-propoxy)-2-methyl-1H-indole], the EC50 is 490 nM and the “IA(β3)” value is 0.23.
The like results for `COc1ccc(S(=O)(=O)N2CCC(CNC[C@H](O)COc3cccc4c3-c3ccccc3C4=O)CC2)cc1` [Example 38, 4-((2S)-2-Hydroxy-3-{[1-(4-methoxy-benzenesulfonyl)-piperidin-4-ylmethyl]-amino}-propoxy)-fluoren-9-one] were, in that order, 365 nM and 0.36.
`CS(=O)(=O)Nc1cc([C@@H](O)CNCC2CCN(S(=O)(=O)c3ccc(CNC(=O)c4ccccc4)s3)CC2)ccc1O` [Example 183, N-({5-[(4-{[((2R)-2-hydroxy-2-{4-hydroxy-3-[(methylsulfonyl)-amino]-phenyl}ethyl)amino]methyl}piperidin-1-yl)sulfonyl]thien-2-yl}methyl)benzamide]: the EC50 turned out to be 1410 nM and the “IA(β3)” value is listed as 0.72.
Taken in the same sequence, the figures for `CC(C)S(=O)(=O)N1CCC(CNC[C@H](O)COc2cccc3[nH]c4ccccc4c23)CC1` [Example 32, (2S)-1-(9H-Carbazol-4-yloxy)-3-{[1-(ropane-2-sulfonyl)-piperidin-4-ylmethyl]-amino}-propan-2-ol] were 123 nM and 0.8.
`COc1ccc(S(=O)(=O)N2CCC(CNC[C@H](O)COc3ccc(O)cc3)CC2)cc1OC` [Example 43, 4-((2S)-2-Hydroxy-3-{[1-(3,4-dimethoxy-benzenesulfonyl)-piperidin-4-ylmethyl]-amino}-propoxy)-phenol]: a half-maximal response (EC50) required 880 nM and the “IA(β3)” value is recorded as 0.68.
As to `COc1ccc(S(=O)(=O)N2CCC(CNC[C@H](O)COc3cccc4c3CC(=O)N4)CC2)cc1` [Example 41, 4-((2S)-3-{[1-(4-Methoxy-benzenesulfonyl)-piperidin-4-ylmethyl]-amino}-2-hydroxy-propoxy)-1,3-dihydro-indol-2-one], the EC50 was determined as 95 nM and the “IA(β3)” value was found to be 0.65.
With `CS(=O)(=O)Nc1cc([C@@H](O)CNCC2CCN(S(=O)(=O)c3ccc(-n4ccc5c(C(=O)O)cccc54)cc3)CC2)ccc1O` [Example 99, 1-[4-(4-{[(2R)-2-Hydroxy-2-(4-hydroxy-3-methanesulfonylamino-phenyl)-ethylamino]-methyl}-piperidine-1-sulfonyl)-phenyl]-1H-indole-4-carboxylic Acid], the EC50 came to 9 nM and the “IA(β3)” value was 1.
